Assay results taken from ChEMBL document CHEMBL1201862, “PubChem BioAssay data set” (2004).
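Step 1: Grow cells in 96-well plates. Step 2: Expose to compound for 48 hours at 5 concentrations. Step 3: Interpolate endpoints linearly; if unreached, use highest concentration. GI50: concentration for 50% inhibition of growth.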 Activity calls are given as the source filed them. No stated cut-off is given here; in the data, active = GI50 up to about 1.1 µM and inactive = higher.

How the values were obtained:
Experiment in all cases: NCI anticancer screen, dose series, 48 h
A498 = test system: A498
A549 = test system: A549
CCRF-CEM = test system: CCRF-CEM
COLO 205 = test system: COLO 205
DU-145 = test system: DU-145
EKVX = test system: EKVX
HCT-15 = test system: HCT-15
HOP-92 = test system: HOP-92
HT-29 = test system: HT-29
Hs-578T = test system: Hs-578T
M14 = test system: M14
MCF7 = test system: MCF7
PC-3 = test system: PC-3
SF-268 = test system: SF-268
SF-539 = test system: SF-539
SK-MEL-28 = test system: SK-MEL-28
SK-MEL-5 = test system: SK-MEL-5
SW-620 = test system: SW-620
T47D = test system: T47D
UACC-257 = test system: UACC-257

Compound | GI50 (A498) | GI50 (A549) | GI50 (CCRF-CEM) | GI50 (COLO 205) | GI50 (DU-145) | GI50 (EKVX) | GI50 (HCT-15) | GI50 (HOP-92) | GI50 (HT-29) | GI50 (Hs-578T) | GI50 (M14) | GI50 (MCF7) | GI50 (PC-3) | GI50 (SF-268) | GI50 (SF-539) | GI50 (SK-MEL-28) | GI50 (SK-MEL-5) | GI50 (SW-620) | GI50 (T47D) | GI50 (UACC-257)
Cc1cc(O)nc2cc3oc4ccccc4c3cc12 | > 100 µM (inactive) | 7.64 µM (inactive) | 11.5 µM (inactive) | 16.7 µM (inactive) | > 100 µM (inactive) | 0.0448 µM (active) | > 61.2 µM | > 100 µM (inactive) | 44.8 µM (inactive) | 0.562 µM (active) | > 100 µM (inactive) | 4.55 µM (inactive) | > 100 µM (inactive) | 28.1 µM (inactive) | 39.8 µM (inactive) | > 100 µM (inactive) | 7.52 µM (inactive) | 35.2 µM (inactive) | > 100 µM (inactive) | > 50.2 µM (inactive)
Cc1ccc(/C=N/Nc2nncc3ccccc23)s1 | > 100 µM (inactive) | > 100 µM (inactive) | > 100 µM (inactive) | > 100 µM (inactive) | > 31.6 µM (inactive) | > 100 µM (inactive) | > 100 µM | > 100 µM (inactive) | > 100 µM (inactive) | 35.6 µM (inactive) | > 67.5 µM (inactive) | 19.5 µM (inactive) | 96.8 µM (inactive) | > 58.1 µM (inactive) | 52.6 µM (inactive) | > 100 µM (inactive) | > 100 µM (inactive) | > 100 µM (inactive) | > 100 µM (inactive) | > 100 µM (inactive)
O=C1C(Cl)=C(N2CCN(c3ccccn3)CC2)C(=O)c2c(O)ccc(O)c21 | 4.25 µM (inactive) | 6.49 µM (inactive) | 0.37 µM (active) | 1.43 µM (inactive) | 3.66 µM (inactive) | 4.27 µM (inactive) | 1.12 µM | 1.21 µM (inactive) | 1.28 µM (inactive) | 1.84 µM (inactive) | 1.46 µM (inactive) | 1.42 µM (inactive) | 1.94 µM (inactive) | 2.59 µM (inactive) | 1.79 µM (inactive) | 1.9 µM (inactive) | 1.42 µM (inactive) | 0.665 µM (active) | 1.3 µM (inactive) | 1.84 µM (inactive)
COC(=O)c1c2c(cc3c1CC1(Cc4cc5c(cc4C1)CCC5)C3)CCC2 | > 100 µM (inactive) | > 100 µM (inactive) | > 100 µM (inactive) | – | > 100 µM (inactive) | > 100 µM (inactive) | > 100 µM | > 100 µM (inactive) | > 100 µM (inactive) | > 100 µM (inactive) | > 100 µM (inactive) | > 100 µM (inactive) | > 100 µM (inactive) | > 100 µM (inactive) | > 100 µM (inactive) | > 100 µM (inactive) | > 100 µM (inactive) | > 100 µM (inactive) | > 100 µM (inactive) | > 100 µM (inactive)
Cc1cc(S(=O)(=O)Nc2nc(N)n(-c3cnc4ccccc4n3)n2)c(S)cc1Cl | 62.2 µM (inactive) | > 100 µM (inactive) | 37.1 µM (inactive) | > 100 µM (inactive) | > 100 µM (inactive) | > 100 µM (inactive) | > 100 µM | 16.6 µM (inactive) | > 100 µM (inactive) | 78.5 µM (inactive) | > 100 µM (inactive) | > 100 µM (inactive) | > 100 µM (inactive) | 85.3 µM (inactive) | > 100 µM (inactive) | > 100 µM (inactive) | > 100 µM (inactive) | > 100 µM (inactive) | > 100 µM (inactive) | > 100 µM (inactive)
CC(=O)OC(C)(C)/N=N/c1ccc(Br)cc1 | > 87.5 µM (inactive) | 6.04 µM (inactive) | 10.2 µM (inactive) | 0.52 µM (active) | 54.2 µM (inactive) | 9.38 µM (inactive) | 0.977 µM | 23.7 µM (inactive) | 0.975 µM (active) | > 53.2 µM (inactive) | 0.277 µM (active) | 0.551 µM (active) | 24.3 µM (inactive) | 17.4 µM (inactive) | 0.841 µM (active) | 3.01 µM (inactive) | 0.209 µM (active) | 48.2 µM (inactive) | 1.09 µM (active) | 5.45 µM (inactive)
COC1(OC)N=C(N)C2(C#N)C(C)CC(=O)N(N(C)C)C12C#N (centres undefined) | > 100 µM (inactive) | > 100 µM (inactive) | > 100 µM (inactive) | > 100 µM (inactive) | > 100 µM (inactive) | > 100 µM (inactive) | > 100 µM | > 100 µM (inactive) | > 100 µM (inactive) | > 100 µM (inactive) | > 100 µM (inactive) | > 100 µM (inactive) | > 100 µM (inactive) | > 100 µM (inactive) | > 100 µM (inactive) | > 100 µM (inactive) | > 100 µM (inactive) | > 100 µM (inactive) | > 100 µM (inactive) | > 100 µM (inactive)
